This note sets out measurements from patent US20250282779A1, “SUBSTITUTED 5,6,7,8-TETRAHYDROPYRIDO[2,3-D]PYRIMIDINE-2,4-DIONES FOR TREATING CARDIAC DISEASES” (MYOKARDIA, INC., priority 2018, published 2025).

This data set in a line: physchem. To be noted: pH 7.4, aqueous buffer, kinetic from dmso stock. Here is the method: After shaking at room temperature for 1.5 h, the mixture was filtered under vacuum through a 96-well filter plate, which was pre-washed with 100 μL of 70% ethanol per well. Subsequently, 70 μL of the filtrate was added into a well in a 96-well reading plate, which was pre-loaded with 70 μL of DMSO per well. The concentration of the sample in a well was determined on the basis of the intergration on LC with UV detection as compared to the standard curve of each compound established in DMSO.

`COC(=O)[C@H]1[C@H]2C[C@@H]3c4[nH]c5cc(OC)ccc5c4CCN3C[C@H]2C[C@@H](OC(=O)c2cc(OC)c(OC)c(OC)c2)[C@@H]1OC` [Reserpine] showed a kinetic solubility at 1.5 h of less than 15 µM.
